Test results from US7718677B2, “Methods and compositions for reduction of side effects of therapeutic treatments” (priority 2007, dated 2010).

Legend:
levodopa-primed monkeys = system: levodopa-primed monkeys
Method: Levodopa administration: Monkeys were administered levodopa/carbidopa (5 mg/kg and 1.25 mg/kg, respectively), prepared by crushing a tablet of Sinemet® CR 100/25 (DuPont Pharma) and dissolving it in water. This dose of levodopa is within the range of that prescribed to Parkinson's disease patients. The monkeys were gavaged twice daily at 3.5-hour intervals for 8 weeks at a time using a 5-day-on/2-day-off schedule (Hsu et al., J Pharmacol Exp Ther. 2004; 311:770-777). During levodopa treatment, the monkeys were given fruits in the morning and food pellets 3.5 hours after the afternoon levodopa dose to optimize gastrointestinal absorption.
Dyskinesias were rated from videotapes, as described (Hsu et al., J Pharmacol Exp Ther. 2004; 311:770-777). This included a one hour baseline period (no drugs) from ˜8:00-9:00 AM, followed by two 3.5-hour treatment periods with levodopa starting at ˜9:00 AM and ˜12:30 PM. Dyskinesias were rated for 2-minute periods at 30-minute intervals by two independent raters blinded to treatment. They were rated on a scale of 0 (no dyskinesias) to 4; a score of 1 was indicative of subtle dyskinesias that were not sustained; 2, mild dyskinesias that were sustained; 3, moderate dyskinesias that impaired the ability to remain stationary; 4, severe dyskinesias that were generalized and incapacitating.
Data analyses: The levodopa treatment protocol used in the present study involved a 5-day-on/2-day-off schedule. Parkinsonian ratings were done on Monday and Friday of each week, with the score averaged over the two days. Dyskinesias ratings were determined by averaging the scores on Wednesday and Thursday of each week. All values are expressed as the mean±SE of the indicated number of animals. Results were compared using paired t-tests or analysis of variance (ANOVA) followed by Bonferroni multiple comparison post hoc test, using Prism® program (GraphPad Software, Inc, San Diego, Calif.). A level of 0.05 was considered significant.
Materials and methods were the same as in example 1.
A crossover study, was then conducted, in which the animals originally receiving nicotine were given vehicle (n=3), while the vehicle-treated animals were now administered nicotine (n=4). Levodopa treatment was stopped. […] Monkeys that had previously received nicotine were placed on vehicle drinking water for the same time period. All monkeys were then treated with levodopa (5 mg/kg, twice daily 3.5 hours apart) for a subsequent 8-week period. Since both groups of monkeys had previously received levodopa, they were termed levodopa-primed.

[1] = system: 6-hydroxydopamine-lesioned rats
Method: Animal model—6-Hydroxydopamine lesioning. We used the 6-hydroxydopamine lesioned rat model of nigrostriatal damage described by Cenci and colleagues (Cenci et al., 1998 Eur J Neurosci 10:2694-2706; Cenci et al., 2002 Nat Rev Neurosci 3:574-579). Adult male Sprague-Dawley rats were anesthetized with isofluorane, and then placed in a Kopf stereotaxic instrument. Burr holes were drilled through the skull and an intracranial injection of 6 μg 6-hydroxydopamine (2 μg/μl) stereotaxically injected at two separate sites into the right ascending dopamine fiber bundle, for a total of 12 μg 6-hydroxydopamine. The coordinates for the position of these two lesion sites were as follows relative to the Bregma and dural surface: (1) anteroposterior, −4.4; lateral, 1.2; ventral, 7.8; tooth bar at −2.4; (2) anteroposterior, −4.0; lateral, 0.75; ventral, 8.0; tooth bar at +3.4 (Cenci et al., 1998 Eur J Neurosci 10:2694-2706; Cenci et al., 2002 Nat Rev Neurosci 3:574-579). All procedures conformed to the NIH Guide for the Care and Use of Laboratory Animals and were approved by the Institutional Animal Care and Use Committee.
Nicotine treatment regimen. The rats were first given a drinking solution containing 1% saccharin for 3-4 days (FIG. 8). Nicotine was then added at a concentration of 25 μg/ml, and increased to 50 μg/ml 3-4 days later. Animals were maintained on this dose for 3 weeks. L-dopa treatment was then initiated, as below, with the nicotine dosing continued.
L-dopa treatment and behavioral testing for AIMs. Rats received single daily intraperitoneal injections of 8 mg/kg L-dopa methyl ester plus 15 mg/kg benserazide for 3 weeks (FIG. 8), as described (Cenci et al., 1998 Eur J Neurosci 10:2694-2706; Cenci et al., 2002 Nat Rev Neurosci 3:574-579). Abnormal involuntary movements (AIMs) after daily LDOPA injection were then quantified using the scale developed by Cenci and colleagues (Cenci et al., 1998 Eur J Neurosci 10:2694-2706; Cenci et al., 2002 Nat Rev Neurosci 3:574-579), as previously done in our laboratory (Cox et al., 2007, Exp. Neurol.). Rats were placed in a Rotomax test chamber. They were then scored on a scale from 0 to 4: 1=occasional; 2=frequent; 3=continuous but interrupted by sensory distraction; 4=continuous, severe, not interrupted by sensory distraction. The rating categories were as follows; (1) axial dystonia, consisting of twisting posturing of the head and neck; (2) orolingual dyskinesia, with stereotyped jaw movements and contralateral tongue protrusion and (3) forelimb movements, with dystonic movements of the contralateral forelimb. They were also assessed for locomotive dyskinesia, or increased locomotion with contralateral side bias; however, these scores were not included because the interpretation of this motor response is not clear (Papa et al., 1994 Brain Res 662; 69-74; Cenci et al., 1998 Eur J Neurosci 10:2694-2706).
Locomotive dyskinesias are distinct from turning behavior described above. […] The maximum possible score in each session was thus 108 (maximum score per observation=12; number of observations per session=9). Rats were evaluated by two raters, one blinded to treatment.
Data analyses. Statistical significance was determined using Student's t-tests or ANOVA followed by Bonferroni post hoc tests, as appropriate. Data are mean±SEM. A p level of 0.05 was considered significant.

## CN1CCCC1c1cccnc1 (centres unmarked) [Nicotine, S-3-(1-methyl-2-pyrrolidinyl)pyridine]
levodopa-primed monkeys; animals removed from nicotine treatment, week 4, 6 and 8 of levodopa treatment
  total dyskinetic scores after removal of nicotine: significantly enhanced
levodopa-primed monkeys; levodopa-primed monkeys
  reduction of dyskinesias: ~35%
levodopa-primed monkeys; levodopa-primed monkeys switched to nicotine
  duration of dyskinesias: decrease
levodopa-primed monkeys; levodopa-primed monkeys switched to nicotine, last 4 weeks of levodopa treatment
  peak dyskinesias: significantly reduced
levodopa-primed monkeys; levodopa-primed monkeys switched to nicotine, vs same animal before crossover, all time points, paired t-tests
  total dyskinesias: significantly reduced
[1]; 25 μg/ml nicotine in the drinking water, two and four weeks after dose lowering, pooled
  total AIMs: reduction in AIMs was sustained
[1]; 50 μg/ml nicotine in drinking water, after 3 weeks of L-dopa 8 mg/kg ip, entire 3-hour period
  total AIM scores: reduction
[1]; 3 and 6-8 week time points
  oral dyskinesias: trend for a decrease
[1]; 3 and 6-8 week time points, both doses of nicotine (50 and 25 μg/ml)
  forelimb dyskinesias: significant decreases
[1]; 6-8 week time point
  axial dyskinesias: significant decreases
[1]; 25 and 50 μg/ml in the drinking water
  persistence of the decline in AIMs with L-dopa treatment: at least 2 months
